The results in this text go back to patent publication US10752588B2 (The Broad Institute, Inc., priority 2014, dated 2020).

Read-outs that look alike come from different tables or passages of the source.

For assay [1], the target named is T1, human D2R/β-arrestin (Homo sapiens (Human), UniProt P14416). The settings on record: read-out: β-arrestin Antagonist.
Assay [2] concerns the target T1, human D2R/β-arrestin. Put plainly: β-Arrestin agonist assay (PathHunter). It is filed as cell-based. The settings on record: CHO-K1 cell line expressing human D2R/β-arrestin. In short, it runs like this:
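After compound incubation, detection reagent (Buffer:Emerald II:Galactor-Star, 19:5:1) added and luminescence or fluorescence read.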

In assay [3] the target is T1, human D2R/β-arrestin. Description: Gi/cAMP agonist assay (Lance Ultra cAMP, Forskolin). Format: cell-based. The settings on record: CHO-K1 cell line expressing human D2R/β-arrestin. The gist of the method:
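Cells were plated and incubated before compounds were pin-transferred and incubated for 10 min at 37 °C. Forskolin was then added to stimulate cAMP. cAMP was detected by Lance Ultra TR-FRET using Eu-cAMP tracer and ULight-anti-cAMP antibody.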

For assay [4], the target named is T1, human D2R/β-arrestin. The settings on record: read-out: cAMP Antagonist.
Assay [5] addresses T1, human D2R/β-arrestin. Put plainly: cell-based. Conditions: β-arrestin Antagonist, CHO-K1 cell line expressing human D2R/β-arrestin; quinpirole used as agonist.
Setting [6] is: CHO-K1 cell line expressing human D2R/β-arrestin, quinpirole used as agonist.

T1 sequence (P14416 whole entry): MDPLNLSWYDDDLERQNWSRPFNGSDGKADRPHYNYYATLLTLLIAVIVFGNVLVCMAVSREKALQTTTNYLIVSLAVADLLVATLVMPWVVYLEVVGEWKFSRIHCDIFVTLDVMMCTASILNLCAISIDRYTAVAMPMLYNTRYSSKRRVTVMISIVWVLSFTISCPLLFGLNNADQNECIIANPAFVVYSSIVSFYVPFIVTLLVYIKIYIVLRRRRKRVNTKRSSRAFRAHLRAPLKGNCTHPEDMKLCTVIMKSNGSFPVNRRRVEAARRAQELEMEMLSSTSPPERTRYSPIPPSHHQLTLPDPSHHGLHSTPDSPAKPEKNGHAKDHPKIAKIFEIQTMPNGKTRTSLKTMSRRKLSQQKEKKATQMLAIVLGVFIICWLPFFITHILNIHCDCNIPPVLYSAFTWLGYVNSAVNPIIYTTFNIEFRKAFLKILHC

As a reminder, the EC50 is the midpoint of the concentration-response curve. A low value points to greater potency. Turning to `O=C(NC(c1ccc(Cl)cc1)c1ccccn1)C1CCN(CCOc2ccccc2F)CC1` (single isomer, unassigned) [Compound 3a], the IC50 on human D2R/β-arrestin [1] and on human D2R/β-arrestin [4] was 0.1 to 1 µM each time. For the same compound, the EC50 at human D2R/β-arrestin [2] and at human D2R/β-arrestin [3] was more than 30 µM throughout.

Consider `O=C(NC(c1ccc(Cl)cc1)c1ccccn1)C1CCN(CCOc2ccccc2F)CC1` (single isomer, unassigned) [Compound 3b], for which the values for the IC50 at human D2R/β-arrestin [1] and at human D2R/β-arrestin [4] were 0.1 to 1 µM and more than 30 µM, respectively. For the same compound, the EC50 at human D2R/β-arrestin [2] was more than 30 µM; on human D2R/β-arrestin [3] it was less than 0.1 µM.

Turning to `O=C(NC(c1ccc(Cl)cc1)c1ccccn1)C1CCN(CCOc2cccc(F)c2)CC1` (single isomer, unassigned) [Compound 4a], the IC50 at human D2R/β-arrestin [1] is 1 to 10 µM; on human D2R/β-arrestin [4] it was more than 30 µM. Also, the EC50 is 1 to 10 µM on human D2R/β-arrestin [2] and 0.1 to 1 µM on human D2R/β-arrestin [3].

Consider `O=C(NC(c1ccc(Cl)cc1)c1ccccn1)C1CCN(CCOc2cccc(F)c2)CC1` (single isomer, unassigned) [Compound 4b], for which the IC50 is 1 to 10 µM on human D2R/β-arrestin [1] and 0.1 to 1 µM on human D2R/β-arrestin [4]. In addition, the EC50 at human D2R/β-arrestin [2] and at human D2R/β-arrestin [3] was more than 30 µM throughout.

In the case of `O=C(NC(c1ccc(Cl)cc1)c1ccccn1)C1CCN(CCn2ccc(=O)cc2)CC1` (single isomer, unassigned) [Compound 11a], the values for the IC50 on human D2R/β-arrestin [1] and on human D2R/β-arrestin [4] were 0.1 to 1 µM and 1 to 10 µM, respectively. Moreover, the EC50 on human D2R/β-arrestin [2] and at human D2R/β-arrestin [3] was more than 30 µM each time.

Turning to `O=C(NC(c1ccc(Cl)cc1)c1ccccn1)C1CCN(CCn2ccc(=O)cc2)CC1` (single isomer, unassigned) [Compound 11b], the IC50 on human D2R/β-arrestin [1] and on human D2R/β-arrestin [4] was more than 30 µM each time. The EC50 at human D2R/β-arrestin [2] and on human D2R/β-arrestin [3] was more than 30 µM each time.

For the compound `COc1cccc(C(c2ccccn2)N(C)CC2CCN(CCOc3ccccc3F)CC2)c1` (single isomer, unassigned) [Compound 77b, N-((1-(2-(2-fluorophenoxy)ethyl)piperidin-4-yl)methyl)-1-(3-methoxyphenyl)-N-methyl-1-(pyridin-2-yl)methanamine], the EC50 on human D2R/β-arrestin [2] and on human D2R/β-arrestin [3] was more than 30 µM each time. In addition, the IC50 on human D2R/β-arrestin [5] was in the range of 1 to 10 µM; on human D2R/β-arrestin [4] (setting [6]) it was 0.1 to 1 µM.

As for `Fc1ccccc1C(NCC1CCN(CCOc2ccccc2)CC1)c1ccc(Cl)cc1` (single isomer, unassigned) [Compound 81b, 1-(4-chlorophenyl)-1-(2-fluorophenyl)-N-((1-(2-phenoxyethyl)piperidin-4-yl)methyl)methanamine], the EC50 at human D2R/β-arrestin [2] and at human D2R/β-arrestin [3] was more than 30 µM throughout. Further, the IC50 at human D2R/β-arrestin [5] fell in the range of 1 to 10 µM; at human D2R/β-arrestin [4] (setting [6]), 0.1 to 1 µM.

Take `Clc1ccc(C(c2ccccn2)N2CCC3(CCN(CCOc4ccccc4)CC3)C2)cc1` (single isomer, unassigned) [Compound 105b, 2-((4-chlorophenyl)(pyridin-2-yl)methyl)-8-(2-phenoxyethyl)-2,8-diazaspiro[4.5]decane]: the figures for the EC50 on human D2R/β-arrestin [2] and at human D2R/β-arrestin [3] were 1 to 10 µM and 0.1 to 1 µM, respectively. In addition, the IC50 on human D2R/β-arrestin [5] was 1 to 10 µM; on human D2R/β-arrestin [4] (setting [6]), more than 30 µM.

With `Fc1ccccc1OCCN1CCC(CNC(c2ccc3c(c2)OCO3)c2ccccn2)CC1` (single isomer, unassigned) [Compound 139b, 1-(benzo[d][1,3]dioxol-5-yl)-N-((1-(2-(2-fluorophenoxy)ethyl)piperidin-4-yl)methyl)-1-(pyridin-2-yl)methanamine], the concentration for a half-maximal effect (EC50) at human D2R/β-arrestin [2] was more than 30 µM; at human D2R/β-arrestin [3] it was 0.1 to 1 µM. Moreover, the IC50 on human D2R/β-arrestin [5] is 1 to 10 µM; on human D2R/β-arrestin [4] (setting [6]) it was 0.1 to 1 µM.

Take `CC1(C(=O)NC(c2ccc(Cl)cc2)c2ccccn2)CCN(CCOc2ccccc2)CC1` (single isomer, unassigned) [Compound 144b, N-((4-chlorophenyl)(pyridin-2-yl)methyl)-4-methyl-1-(2-phenoxyethyl)piperidine-4-carboxamide]: the EC50 at human D2R/β-arrestin [2] is 0.1 to 1 µM; on human D2R/β-arrestin [3] it was less than 0.1 µM. The IC50 at human D2R/β-arrestin [5] is 0.1 to 1 µM; at human D2R/β-arrestin [4] (setting [6]), more than 30 µM.
